Measurements published in US20200055848A1, “FURANONE DERIVATES AND METHODS OF USE THEREOF” (CARNA BIOSCIENCES, INC., priority 2016, published 2020).

Experiments:
[1] = In vitro metabolic stability, mouse liver microsomes; format: in vitro ADME
Description: NADPH regeneration system (13 mM NADP, 33 mM Glucose-6-phospate, 33 mM MgCl2, and 4 U/mL of Glucose-6-phosphate dehydrogenase) and liver microsomes (1 mg/mL of HLM (BD Gentest, lot 18888) or MLM (BD Gentest, lot 31197)) in 0.1 M phosphate buffer (pH 7.4) were pre-incubated separately at 37° C. for 20 min before mixing with 1:4 ratio. 50 μL of the mixed solution was added to 50 μL of the test compound (2 μM) to initiate the reaction at 37° C. (final conc. 1 μM test compound, 0.4 mg/mL liver microsomes, and 1.3 mM NADPH). After 30 min, the reactions were stopped by adding 300 μL of cold acetonitrile. For 0 min samples, ice-cold acetonitrile (with system suitability standard) was treated before mixing the test compound and microsomes. The sample were vortexed well and then centrifuged at 3500 rpm at 15° C. for 20 min. 110 μL of supernatant was mixed with 110 μL of water and quantitated by LC-MS/MS workstation (Shimazu Corp.).

panel of 121 kinases = assay: Kinase selectivity screen over a panel of 121 kinases; format: biochemical; conditions: 1 mM ATP with preincubation
Description: (§1) To investigate the representative kinase selectivity of these compounds at physiological ATP levels, compound 13 was screened over a panel of 121 kinases in the presence of 1 mM ATP with preincubation method. […] IC50 values of hit kinases were determined to confirm the selectivity of compound 13.

CLK1 = CLK1 (Homo sapiens, UniProt P49759); assay: Kinase selectivity IC50, CLK1; format: biochemical
Description: as §1

CLK2 = CLK2 (Homo sapiens, UniProt P49760); assay: Kinase selectivity IC50, CLK2; format: biochemical
Description: as §1

DYRK1B = DYRK1B (Homo sapiens, UniProt Q9Y463); assay: Kinase selectivity IC50, DYRK1B; format: biochemical
Description: as §1

Erk2 = Erk2 (Homo sapiens, UniProt P28482); assay: Kinase selectivity IC50, Erk2; format: biochemical
Description: as §1

PIM1 = PIM1 (Homo sapiens, UniProt P11309); assay: Kinase selectivity IC50, PIM1; format: biochemical
Description: as §1

Erk1 = Erk1 (Homo sapiens, UniProt P27361); assay: Kinase selectivity IC50, Erk1; format: biochemical
Description: as §1

[2] = tested on: phosphorylation at Ser53 of MCM2; assay: Western blotting of MCM2 phosphorylation in Colo-205 cells; format: cell-based, human; conditions: 48 h, even at 0.1 μM
Description: (§2) FIGS. 3A and 3B illustrate the effects of Cdc7 inhibition by compound 13 in Colo-205 cells. a) Western blot analysis of extracts prepared from Colo-205 cells at 48 h after treatment with DMSO control (0 μM) or compound 13 at indicated concentrations. b) […] analysis of Colo-205 cells treated for 48 h with DMSO control (0 μM) and the indicated concentration of compound 13. DNA content was measured by FACS after propidium iodide staining.
(§3) Human colon adenocarcinoma cell line Colo-205 was obtained from American Type Culture Collection (ATCC, Manassas Va.). Cells were grown in RPMI1640 supplemented with 10% FBS and 1% penicillin/streptomycin at 37° C., 5% CO2 and 95% humidity. Antibodies against Phospho-Histone H2A.X (Ser139) (no. 2577), Cleaved PARP (Asp214) (no. 9541) and MCM2 (no. 3619) were obtained from Cell signaling Technology. […]
(§4) Cells were seeded in T75 flasks (cell density, 2.25×10^6 cells/13.5 mL) and then incubated at 37° C. overnight. […] After washing with cold D-PBS, cells were scraped and lysed using a lysis buffer [RIPA Buffer (×1) containing 1% Phosphatase inhibitor Cocktail 3, 1% Phosphatase inhibitor Cocktail, and 1 mM phenylmethylsulfonyl fluoride], and the obtained samples were analyzed by western blotting. […] Each band was detected by chemiluminescence using a CCD camera (ImageQuant LAS 500, GE healthcare Ltd.).

phospho-H2AX (γ-H2AX) = assay: Western blotting of phospho-H2AX in Colo-205 cells; format: cell-based, human; conditions: 48 h
Description: as §2, §3, §4

Colo-205 cells [3] = assay: Cell cycle analysis (flow cytometry); format: cell-based, human; conditions: 48 hours, 0.33 and 1 μM
Description: as §2
Colo-205 cells (5×10^5) were seeded in six-well plates and treated with different concentrations of a test compound. After 48 h, the cells were harvested and suspended in 0.5 mL of D-PBS. The cells were then fixed by adding 1 mL of ice-cold ethanol, and the samples were kept at −30° C. The cells were resuspended in 200 μL PI solution (20 μg/mL propydium iodide and 100 μg/mL RNaseA of D-PBS), and incubated in the dark for 1 h at room temperature. Cell cycle analyses were performed using FACS Calibur flow cytometer (BD Biosciences).

Colo-205 cells [4] = assay: Anti-proliferation activity in Colo-205 cells; format: cell-based; conditions: Homo sapiens, read-out: reduction of cell proliferation IC50
[5] = tested on: phosphorylation of MCM2 in Colo-205 cells; assay: Recovery of MCM2 phosphorylation after inhibitor washout; format: cell-based, human; conditions: Colo-205 cells treated 48 hours, then compound-free media
Description: Colo-205 cells were treated with or without compounds for 48 h. After inhibitor washout with compound-free media, the cells were lysed at the indicated time and subjected to western blot analysis.
Next, we investigated the recovery of substrate phosphorylation in cells after inhibitor washout to see whether the slow-off rate of inhibitor affects the recovery of phosphorylation. Colo-205 cells were treated for 48 hours with 13, and then, the inhibitor was washed out with compound-free media. The cells were lysed at the indicated time, and the phosphorylation status of MCM2 was analyzed by western blotting.

[6] = Half-life after intravenous administration in mice; conditions: mouse, in vivo
[7] = 1 mM ATP with preincubation, mean of duplicated assays

Chain of Erk1 (P27361 whole entry): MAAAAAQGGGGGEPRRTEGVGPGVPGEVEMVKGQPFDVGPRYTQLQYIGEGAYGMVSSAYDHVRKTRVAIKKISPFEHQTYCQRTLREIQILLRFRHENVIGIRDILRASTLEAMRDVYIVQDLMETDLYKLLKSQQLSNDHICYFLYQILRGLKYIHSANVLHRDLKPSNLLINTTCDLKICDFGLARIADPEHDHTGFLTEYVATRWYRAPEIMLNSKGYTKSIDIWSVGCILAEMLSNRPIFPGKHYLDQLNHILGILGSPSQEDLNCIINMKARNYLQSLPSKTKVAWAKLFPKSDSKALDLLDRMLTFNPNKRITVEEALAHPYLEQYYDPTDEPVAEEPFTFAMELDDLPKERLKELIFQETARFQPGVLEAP
Chain of DYRK1B (Q9Y463 whole entry): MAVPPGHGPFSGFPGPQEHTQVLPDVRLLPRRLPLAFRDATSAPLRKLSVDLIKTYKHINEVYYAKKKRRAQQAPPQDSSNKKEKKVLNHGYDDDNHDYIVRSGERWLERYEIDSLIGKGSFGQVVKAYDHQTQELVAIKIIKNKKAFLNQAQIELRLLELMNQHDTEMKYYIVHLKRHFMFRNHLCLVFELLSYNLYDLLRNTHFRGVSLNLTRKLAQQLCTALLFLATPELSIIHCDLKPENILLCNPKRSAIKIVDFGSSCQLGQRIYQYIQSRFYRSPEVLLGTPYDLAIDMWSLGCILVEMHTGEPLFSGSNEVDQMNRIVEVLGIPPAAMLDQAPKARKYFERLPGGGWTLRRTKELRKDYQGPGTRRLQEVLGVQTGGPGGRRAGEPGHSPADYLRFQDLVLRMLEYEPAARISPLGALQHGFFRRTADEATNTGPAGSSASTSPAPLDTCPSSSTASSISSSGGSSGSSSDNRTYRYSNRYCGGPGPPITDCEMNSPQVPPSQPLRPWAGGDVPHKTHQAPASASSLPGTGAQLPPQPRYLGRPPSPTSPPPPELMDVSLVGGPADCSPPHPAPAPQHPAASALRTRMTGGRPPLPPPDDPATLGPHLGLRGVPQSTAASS
Chain of Erk2 (P28482 whole entry): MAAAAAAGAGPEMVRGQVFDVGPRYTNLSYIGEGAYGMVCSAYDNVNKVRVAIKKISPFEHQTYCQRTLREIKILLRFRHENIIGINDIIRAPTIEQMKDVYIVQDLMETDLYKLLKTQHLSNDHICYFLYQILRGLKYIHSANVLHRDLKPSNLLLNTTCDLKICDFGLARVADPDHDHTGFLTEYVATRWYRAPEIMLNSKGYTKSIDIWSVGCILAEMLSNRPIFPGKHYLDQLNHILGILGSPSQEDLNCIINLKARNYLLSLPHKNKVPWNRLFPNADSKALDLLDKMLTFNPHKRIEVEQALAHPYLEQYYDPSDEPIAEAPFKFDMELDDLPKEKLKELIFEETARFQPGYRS
Chain of CLK2 (P49760 whole entry): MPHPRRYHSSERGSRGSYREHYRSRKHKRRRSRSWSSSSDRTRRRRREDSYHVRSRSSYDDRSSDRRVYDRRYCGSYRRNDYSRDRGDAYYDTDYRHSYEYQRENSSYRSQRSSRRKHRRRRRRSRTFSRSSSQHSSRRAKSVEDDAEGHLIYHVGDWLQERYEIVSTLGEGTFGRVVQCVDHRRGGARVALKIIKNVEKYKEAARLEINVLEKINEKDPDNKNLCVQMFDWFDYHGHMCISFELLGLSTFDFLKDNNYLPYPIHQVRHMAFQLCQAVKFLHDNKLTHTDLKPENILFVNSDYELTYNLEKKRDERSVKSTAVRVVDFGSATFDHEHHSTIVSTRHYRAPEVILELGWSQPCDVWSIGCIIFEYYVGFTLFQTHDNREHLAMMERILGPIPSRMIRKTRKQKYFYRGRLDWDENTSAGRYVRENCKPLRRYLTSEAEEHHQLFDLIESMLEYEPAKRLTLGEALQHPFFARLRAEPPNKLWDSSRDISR
Chain of PIM1 (P11309 whole entry): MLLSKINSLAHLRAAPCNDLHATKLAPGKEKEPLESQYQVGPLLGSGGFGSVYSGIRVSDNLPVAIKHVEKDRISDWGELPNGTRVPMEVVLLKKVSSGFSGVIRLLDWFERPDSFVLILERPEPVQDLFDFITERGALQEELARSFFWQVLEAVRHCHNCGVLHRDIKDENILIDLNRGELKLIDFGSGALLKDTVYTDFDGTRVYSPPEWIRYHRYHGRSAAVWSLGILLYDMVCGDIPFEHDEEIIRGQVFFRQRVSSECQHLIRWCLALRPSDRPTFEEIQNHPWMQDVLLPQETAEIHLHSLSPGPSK
Chain of CLK1 (P49759 whole entry): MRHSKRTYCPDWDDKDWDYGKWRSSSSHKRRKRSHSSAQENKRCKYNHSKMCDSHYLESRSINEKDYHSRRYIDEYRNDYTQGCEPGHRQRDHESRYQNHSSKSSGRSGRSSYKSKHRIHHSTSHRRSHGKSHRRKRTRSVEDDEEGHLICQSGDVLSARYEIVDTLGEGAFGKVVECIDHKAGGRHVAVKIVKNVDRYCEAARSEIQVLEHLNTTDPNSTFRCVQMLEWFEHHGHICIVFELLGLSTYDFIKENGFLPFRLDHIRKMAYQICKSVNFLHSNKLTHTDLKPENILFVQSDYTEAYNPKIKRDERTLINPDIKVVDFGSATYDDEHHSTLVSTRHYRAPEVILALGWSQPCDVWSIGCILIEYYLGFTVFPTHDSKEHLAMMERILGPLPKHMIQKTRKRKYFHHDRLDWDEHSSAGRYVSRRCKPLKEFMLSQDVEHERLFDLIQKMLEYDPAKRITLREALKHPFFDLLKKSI

For `CCOC(=O)C1=C(Nc2ccccc2Cl)OC(=Cc2c[nH]c3ncccc23)C1=O` [Compound 13, Ethyl 5-((1H-pyrrolo[2,3-b]pyridin-3-yl)methylene)-2-((2-chlorophenyl)amino)-4-oxo-4,5-dihydrofuran-3-carboxylate], the “MLM % (remaining % of parent compound)” value ([1]; 30 min treatment of mouse liver microsomes) was 58%, the “metabolic stability in mice (in words)” value ([1]; mouse) was “improved metabolic stabilities” and the “selectivity in favor of Cdc7 over CLKs” value (panel of 121 kinases) was 8 fold. The “share of the kinase panel inhibited” value (panel of 121 kinases; >50% inhibition at 0.1 μM, 121 kinases) was 7%, the IC50 (CLK1; [7]) was 5 nM and the “Fold selectivity, CLK1” value (CLK1; IC50 versus Cdc7) was 8.3 fold. The IC50 (CLK2; [7]) was 5.3 nM, the “Fold selectivity, CLK2” value (CLK2; IC50 versus Cdc7) was 8.8 fold and the IC50 (DYRK1B; [7]) was 53 nM. The “Fold selectivity, DYRK1B” value (DYRK1B; IC50 versus Cdc7) was 88 fold, the IC50 (Erk2; [7]) was 61 nM and the “Fold selectivity, Erk2” value (Erk2; IC50 versus Cdc7) was 102 fold. For the same molecule, the IC50 (PIM1; [7]) was 77 nM, the “Fold selectivity, PIM1” value (PIM1; IC50 versus Cdc7) was 129 fold and the IC50 (Erk1; [7]) was 278 nM. For the same molecule, the “Fold selectivity, Erk1” value (Erk1; IC50 versus Cdc7) was 463 fold, the “inhibition of phosphorylation at Ser53 of MCM2” value [2] was “potently inhibited” and the “DNA double strand breaks (phospho-H2AX, γ-H2AX)” value (phospho-H2AX (γ-H2AX)) was “DNA strand breakages were observed”. For the same molecule, the G1 phase peak (Colo-205 cells [3]) was “Marked decreases”, the sub-G1 population (Colo-205 cells [3]) was “significant increase” and the IC50 (Colo-205 cells [4]) was 170 nM. For the same molecule, the “phosphorylation of MCM2 after inhibitor washout” value [5] was “inhibited even 24 hours after washout” and the half-life [6] was 22.8 min.
